# Tests used:
# [1] = tested on: Formosan subterranean termites; test: In-field marking and control, bait at infested trees, sites 1 and 2; type: in vivo; conditions: 250 ppm bait
# Excerpt: (§1) Formosan subterranean termite and native subterranean termite infested trees (Water Oaks and Legastrums) in New Orleans, La. were chosen for this study. Three sites were selected located at the Southern Regional Research Center campus. Site 1 was located near the service building next to an old water oak tree, site 2 was located in the compound area near ligastrum trees, and site 3 near ligastrum trees outside the compound area. Sites 1 and 2 were active with Formosan subterranean termites and site 3 with Eastern subterranean termites.
# (§2) The colored bait matrix at 250 ppm was encapsulated as described above and placed directly in the base of the trees where termites were foraging, making sure that the encapsulated colored bait matrix was covered with soil or with a piece of wood or brick on top of it to prevent desiccation. The bait was periodically inspected for consumption and termite activity. The field study started in early August and was completed by the end of the following June. During winter (December-February) termite activity decreased considerably, but by April termite activity and foraging resumed and the blue colored matrix was replaced by bait formulation containing 250 ppm of chitin synthesis inhibitors to kill the colonies. Diflubenzuron was used in 2 of the sites and chlorfluazuron was used in the remaining site.
# [2] = tested on: Eastern subterranean termites; test: In-field marking and control, bait at infested trees, site 3; type: in vivo; conditions: Site 3 (Ligastrum), 250 ppm bait
# Excerpt: as §1, §2
smiles,measurement,setting,value
"O=C(NC(=O)c1c(F)cccc1F)Nc1ccc(Cl)cc1 [Diflubenzuron, 1-(4-chlorophenyl)-3-(2,6-difluorobenzoyl)urea, reference compound]",Bait consumption,"[1]; Site 1 (Water Oak), day 7",0 g
same,Bait consumption,"[1]; Site 1 (Water Oak), day 14",0 g
same,Bait consumption,"[1]; Site 1 (Water Oak), day 21",0 g
same,Bait consumption,"[1]; Site 1 (Water Oak), day 27",0 g
same,Bait consumption,"[1]; Site 1 (Water Oak), day 46",0 g
same,Bait consumption,"[1]; Site 1 (Water Oak), day 56",0 g
same,Bait consumption,"[1]; Site 1 (Water Oak), day 73",0 g
same,Bait consumption,"[1]; Site 1 (Water Oak), day 83",0 g
same,Bait consumption,"[1]; Site 1 (Water Oak), day 102",0 g
same,Bait consumption,"[1]; Site 1 (Water Oak), day 159",0 g
same,Bait consumption,"[1]; Site 1 (Water Oak), day 221",0 g
same,Bait consumption,"[1]; Site 1 (Water Oak), day 251",150 g
same,Bait consumption,"[1]; Site 1 (Water Oak), day 281",300 g
same,Bait consumption,[2]; day 7,0 g
same,Bait consumption,[2]; day 14,0 g
same,Bait consumption,[2]; day 21,0 g
same,Bait consumption,[2]; day 27,0 g
same,Bait consumption,[2]; day 46,0 g
same,Bait consumption,[2]; day 56,0 g
same,Bait consumption,[2]; day 73,0 g
same,Bait consumption,[2]; day 83,0 g
same,Bait consumption,[2]; day 102,0 g
same,Bait consumption,[2]; day 159,0 g
same,Bait consumption,[2]; day 221,0 g
same,Bait consumption,[2]; day 251,150 g
same,Bait consumption,[2]; day 281,300 g
"O=C(NC(=O)c1c(F)cccc1F)Nc1cc(Cl)c(Oc2ncc(C(F)(F)F)cc2Cl)c(Cl)c1 [Chlorfluazuron, 1-[3,5-dichloro-4-(3-chloro-5-trifluoromethyl-2-pyridyloxy)phenyl]-3-(2,6-difluorobenzoyl)urea, reference compound]",Bait consumption,"[1]; Site 2 (Ligastrum), day 7",0 g
same,Bait consumption,"[1]; Site 2 (Ligastrum), day 14",0 g
same,Bait consumption,"[1]; Site 2 (Ligastrum), day 21",0 g
same,Bait consumption,"[1]; Site 2 (Ligastrum), day 27",0 g
same,Bait consumption,"[1]; Site 2 (Ligastrum), day 46",0 g
same,Bait consumption,"[1]; Site 2 (Ligastrum), day 56",0 g
same,Bait consumption,"[1]; Site 2 (Ligastrum), day 73",0 g
same,Bait consumption,"[1]; Site 2 (Ligastrum), day 83",0 g
same,Bait consumption,"[1]; Site 2 (Ligastrum), day 102",0 g
same,Bait consumption,"[1]; Site 2 (Ligastrum), day 159",0 g
same,Bait consumption,"[1]; Site 2 (Ligastrum), day 221",0 g
same,Bait consumption,"[1]; Site 2 (Ligastrum), day 251",450 g
same,Bait consumption,"[1]; Site 2 (Ligastrum), day 281",750 g

# Reference: patent publication US7628979B1, “Use of calco oil blue V in bait formulations for marking and controlling subterranean termites” (The United States of America as represented by the …, priority 2005, dated 2009)
